Measured values published in patent US9783509B2, “Six-membered C-N-linked aryl sulfide derivatives and aryl sulfoxide derivatives as pest conrol agents” (BAYER CROPSCIENCE AKTIENGESELLSCHAFT, priority 2013, dated 2017).
Read-outs that look alike come from different tables or passages of the source.

Tests used:
[1] = log P by reversed-phase HPLC analogously to OECD Guideline 117; type: physicochemical; conditions: for chromatographic logP: reversed-phase C18 HPLC column
Procedure: The log P values were determined analogously to OECD Guideline 117 (EC Directive 92/69/EEC) by HPLC (high-performance liquid chromatography) using reversed-phase columns (C 18), by the following methods:
[a] LC-MS determination in the acidic range is effected at pH 2.7 with 0.1% aqueous formic acid and acetonitrile (containing 0.1% formic acid) as eluents with a linear gradient from 10% acetonitrile to 95% acetonitrile; or with 0.025% aqueous trifluoroacetic acid and acetonitrile (containing 0.025% trifluoroacetic acid) as eluents with a linear gradient from 50% acetonitrile to 80% acetonitrile.
[b] LC-MS determination in the neutral range is effected at pH 7.8 with 0.001 molar aqueous ammonium hydrogencarbonate solution and acetonitrile as eluents; linear gradient from 10% acetonitrile to 95% acetonitrile.
Calibration is effected with solutions of a homologous series of unbranched alkan-2-ones (having 3 to 16 carbon atoms) with known log P values (log P values determined on the basis of the retention times by linear interpolation between two successive alkanones).

[2] = test system: southern root-knot nematode (Meloidogyne incognita); experiment: Meloidogyne incognita test (sand, lettuce, acetone solvent, 14 days); type: in vivo; conditions: application rate 20 ppm, after 14 days; for pest or weed control at 20 ppm: Meloidogyne incognita, 336 h, read-out: nematicidal efficacy (formation of galls)
Procedure: Meloidogyne incognita Test
Solvent: 125.0 parts by weight of acetone
To produce an appropriate active ingredient formulation, 1 part by weight of active ingredient is mixed with the stated amount of solvent and the concentrate is diluted with water to the desired concentration.
Vessels are filled with sand, active ingredient solution, an egg/larvae suspension of the southern root-knot nematode (Meloidogyne incognita) and lettuce seeds. The lettuce seeds germinate and the plants develop. The galls develop on the roots
After 14 days, the nematicidal efficacy in % is determined by the formation of galls. 100% means that no galls were found; 0% means that the number of galls on the treated plants corresponds to the untreated control.

[3] = test system: greenhouse red spider mite (Tetranychus urticae); experiment: Tetranychus urticae spray test, OP-resistant (bean leaf discs); type: in vivo; conditions: after 6 days; for pest or weed control at 500 g/ha: Tetranychus urticae, foliar, 144 h, read-out: efficacy (spider mites killed)
Procedure: Tetranychus urticae—Spray Test, OP-Resistant
Solvent: 78.0 parts by weight of acetone • • 1.5 parts by weight of dimethylformamide
Emulsifier: alkylaryl polyglycol ether
To produce an appropriate active ingredient formulation, 1 part by weight of active ingredient is dissolved using the specified parts by weight of solvent and made up with water containing an emulsifier concentration of 1000 ppm until the desired concentration is attained. To produce further test concentrations, the preparation is diluted with emulsifier-containing water.
Discs of bean leaves (Phaseolus vulgaris) infested by all stages of the greenhouse red spider mite (Tetranychus urticae) are sprayed with an active ingredient formulation of the desired concentration.
After 6 days, the efficacy in % is determined. 100% means that all the spider mites have been killed; 0% means that none of the spider mites have been killed.

[4] = [a] acidic range, pH 2.7, formic acid (or trifluoroacetic acid)/acetonitrile
[5] = [b] neutral range, pH 7.8, ammonium hydrogencarbonate/acetonitrile
[6] = pH 2.7, running text, [a] acidic range, pH 2.7, read-out: log P[a]
[7] = pH 2.7, table column, [a] acidic range, pH 2.7, formic acid (or trifluoroacetic acid)/acetonitrile, read-out: LogP[a]
[8] = pH 7.8, running text, [b] neutral range, pH 7.8, read-out: log P[b]
[9] = pH 7.8, table column, [b] neutral range, pH 7.8, ammonium hydrogencarbonate/acetonitrile, read-out: LogP[b]

O=c1cnn(-c2cc([S+]([O-])CC(F)(F)F)c(Cl)cc2Cl)c(=O)[nH]1 (racemic) [compound 15]
LogP[a] [1, 4]: 2.02 | LogP[b] [1, 5]: 1.1 | nematicidal efficacy (formation of galls) [2]: 90%

Cc1cc(F)c(-n2ncc(=O)n(C(C)C)c2=O)cc1[S+]([O-])CC(F)(F)F (racemic) [compound 30]
LogP[a] [1, 4]: 2.64 | LogP[b] [1, 5]: 2.58 | efficacy (spider mites killed) ([3]; application rate 500 g/ha): 100% | nematicidal efficacy (formation of galls) [2]: 100%

Cc1cc(F)c(-n2ccc(=O)n(CC#N)c2=O)cc1[S+]([O-])CC(F)(F)F (racemic) [compound 61]
LogP[a] [1, 4]: 1.72 | LogP[b] [1, 5]: 1.73 | efficacy (spider mites killed) ([3]; application rate 500 g/ha): 90% | nematicidal efficacy (formation of galls) [2]: 100%

Cc1cc(F)c(-n2ccc(=O)n(CC3CC3)c2=O)cc1[S+]([O-])CC(F)(F)F (racemic) [compound 62]
LogP[a] [1, 4]: 2.29 | LogP[b] [1, 5]: 2.37 | efficacy (spider mites killed) ([3]; application rate 500 g/ha): 90% | nematicidal efficacy (formation of galls) [2]: 100%

Cc1cc(F)c(-n2ccc(=O)n(C(C)C)c2=O)cc1[S+]([O-])CC(F)(F)F (racemic) [compound 63]
LogP[a] [1, 4]: 2.22 | LogP[b] [1, 5]: 2.31 | efficacy (spider mites killed) ([3]; application rate 500 g/ha): 90% | nematicidal efficacy (formation of galls) [2]: 100%

Cc1cc(F)c(-n2ccc(=O)n(Cc3ccc(F)cc3)c2=O)cc1[S+]([O-])CC(F)(F)F (racemic) [compound 64]
LogP[a] [1, 4]: 2.68 | LogP[b] [1, 5]: 2.77 | efficacy (spider mites killed) ([3]; application rate 100 g/ha): 90% | nematicidal efficacy (formation of galls) [2]: 100%

C=CCn1c(=O)ccn(-c2cc([S+]([O-])CC(F)(F)F)c(C)cc2F)c1=O (racemic) [compound 65]
LogP[a] [1, 4]: 2.01 | LogP[b] [1, 5]: 2.08 | efficacy (spider mites killed) ([3]; application rate 100 g/ha): 90% | nematicidal efficacy (formation of galls) [2]: 100%

Cc1cc(F)c(-n2ccc(=O)n(C)c2=O)cc1SCC(F)(F)F [Ex. No. 53, 1-{2-Fluoro-4-methyl-5-[(2,2,2-trifluoroethyl)sulphanyl]phenyl}-3-methylpyrimidine-2,4(1H,3H)-dione]
chromatographic logP [1, 6]: 2.59 | chromatographic logP [1, 7]: 2.53 | chromatographic logP [1, 8]: 2.53 | chromatographic logP [1, 9]: 2.59 | pest or weed control at 500 g/ha ([3]; application rate 500 g/ha): 90% | pest or weed control at 20 ppm [2]: 100%

Cc1cc(F)c(-n2ccc(=O)[nH]c2=O)cc1[S+]([O-])CC(F)(F)F (centres unmarked) [Ex. No. 56, 1-{2-Fluoro-4-methyl-5-[(2,2,2-trifluoroethyl)sulphinyl]phenyl}pyrimidine-2,4(1H,3H)-dione]
chromatographic logP [1, 6]: 1.3 | chromatographic logP [1, 7]: 1.24 | chromatographic logP [1, 8]: 1.24 | chromatographic logP [1, 9]: 1.3 | pest or weed control at 500 g/ha ([3]; application rate 500 g/ha): 100% | pest or weed control at 20 ppm [2]: 90%

Cc1ccc(-n2ccc(=O)n(C)c2=O)cc1[S+]([O-])CC(F)(F)F (centres unmarked) [Ex. No. 57, 3-Methyl-1-{4-methyl-3-[(2,2,2-trifluoroethyl)sulphinyl]phenyl}pyrimidine-2,4(1H,3H)-dione]
chromatographic logP [1, 6]: 1.5 | chromatographic logP [1, 7]: 1.49 | chromatographic logP [1, 8]: 1.49 | chromatographic logP [1, 9]: 1.5 | pest or weed control at 20 ppm [2]: 90%

Cc1ccc(-n2ccc(=O)n(C)c2=O)cc1SCC(F)(F)F [Ex. No. 58, 3-Methyl-1-{4-methyl-3-[(2,2,2-trifluoroethyl)sulphanyl]phenyl}pyrimidine-2,4(1H,3H)-dione]
chromatographic logP [1, 6]: 2.48 | chromatographic logP [1, 7]: 2.39 | chromatographic logP [1, 8]: 2.39 | chromatographic logP [1, 9]: 2.48 | pest or weed control at 500 g/ha ([3]; application rate 500 g/ha): 90% | pest or weed control at 20 ppm [2]: 100%

O=c1cnn(-c2cc(SCC(F)(F)F)c(Cl)cc2Cl)c(=O)[nH]1 [compound 8]
LogP[a] [1, 4]: 2.72 | LogP[b] [1, 5]: 1.4 | nematicidal efficacy (formation of galls) [2]: 90%

Cc1cc(C)c(-n2ncc(=O)n(C(C)C)c2=O)cc1SCC(F)(F)F [compound 36]
LogP[a] [1, 4]: 3.88 | LogP[b] [1, 5]: 3.81 | efficacy (spider mites killed) ([3]; application rate 500 g/ha): 100%

Cc1cc(C)c(-n2ncc(=O)n(CC#N)c2=O)cc1SCC(F)(F)F [compound 40]
LogP[a] [1, 4]: 3.1 | LogP[b] [1, 5]: 3.05 | efficacy (spider mites killed) ([3]; application rate 500 g/ha): 100%

Cc1cc(C)c(-n2ncc(=O)n(CC(C)C)c2=O)cc1SCC(F)(F)F [compound 41]
LogP[a] [1, 4]: 4.18 | LogP[b] [1, 5]: 4.1 | efficacy (spider mites killed) ([3]; application rate 500 g/ha): 90%

Cc1cc(F)c(-n2ncc(=O)n(Cc3ccccc3)c2=O)cc1SCC(F)(F)F [compound 42]
LogP[a] [1, 4]: 4.04 | LogP[b] [1, 5]: 3.93 | efficacy (spider mites killed) ([3]; application rate 500 g/ha): 100%

CCCn1c(=O)ccn(-c2cc([S+]([O-])CC(F)(F)F)c(C)cc2F)c1=O (centres unmarked) [compound 66]
LogP[a] [1, 4]: 2.17 | LogP[b] [1, 5]: 2.25 | efficacy (spider mites killed) ([3]; application rate 500 g/ha): 90%

Cc1cc(F)c(-n2ccc(=O)n(CC(C)C)c2=O)cc1[S+]([O-])CC(F)(F)F (centres unmarked) [compound 69]
LogP[a] [1, 4]: 2.48 | LogP[b] [1, 5]: 2.55 | nematicidal efficacy (formation of galls) [2]: 100%

Cc1cc(F)c(-n2ccc(=O)n(CC(C)C)c2=O)cc1SCC(F)(F)F [compound 81]
LogP[a] [1, 4]: 3.56 | LogP[b] [1, 5]: 3.62 | efficacy (spider mites killed) ([3]; application rate 500 g/ha): 90%

Cc1ccc(-n2ccc(=O)[nH]c2=O)cc1SCC(F)(F)F [compound 88]
LogP[a] [1, 4]: 1.99 | LogP[b] [1, 5]: 2.05 | efficacy (spider mites killed) ([3]; application rate 500 g/ha): 90%

Cc1cc(C)c(-n2ccc(=O)[nH]c2=O)cc1SCC(F)(F)F [compound 89]
LogP[a] [1, 4]: 2.18 | LogP[b] [1, 5]: 2.25 | efficacy (spider mites killed) ([3]; application rate 500 g/ha): 100%

Cc1ccc(-n2ccc(=O)[nH]c2=O)cc1[S+]([O-])CC(F)(F)F (centres unmarked) [compound 91]
LogP[a] [1, 4]: 1.20 | LogP[b] [1, 5]: 1.19 | efficacy (spider mites killed) ([3]; application rate 500 g/ha): 100%

Cc1cc(C)c([S+]([O-])CC(F)(F)F)cc1-n1ccc(=O)n(C)c1=O (centres unmarked) [compound 93]
LogP[a] [1, 4]: 1.68 | LogP[b] [1, 5]: 1.7 | efficacy (spider mites killed) ([3]; application rate 500 g/ha): 100%

Cc1cc(C)c(-n2ccc(=O)n(CC(F)(F)F)c2=O)cc1SCC(F)(F)F [compound 94]
LogP[a] [1, 4]: 3.39 | LogP[b] [1, 5]: 3.49 | efficacy (spider mites killed) ([3]; application rate 500 g/ha): 100%

CCn1c(=O)ccn(-c2cc(SCC(F)(F)F)c(C)cc2C)c1=O [compound 96]
LogP[a] [1, 4]: 2.98 | LogP[b] [1, 5]: 3.07 | efficacy (spider mites killed) ([3]; application rate 500 g/ha): 100%

Cc1cc(C)c([S+]([O-])CC(F)(F)F)cc1-n1ccc(=O)[nH]c1=O (centres unmarked) [compound 99]
LogP[a] [1, 4]: 1.35 | LogP[b] [1, 5]: 1.38 | efficacy (spider mites killed) ([3]; application rate 500 g/ha): 100%
